Experimental findings from ChEMBL document CHEMBL1201862, “PubChem BioAssay data set” (2004) are described below.

What all share (test): NCI anticancer screen, dose series, 48 h
Assay [1] has as its system 786-0.
Assay [2] relates to A498.
Assay [3] deals with CAKI-1.
The test system of assay [4] is HOP-62.
Assay [5] deals with HOP-92.
The test system of assay [6] is MCF7.
In assay [7] the test system is MDA-N.
Assay [8] deals with NCI-H226.
The subject of assay [9] is NCI-H23.
Assay [10] has as its system NCI-H522.
The test system of assay [11] is OVCAR-4.
Assay [12] deals with OVCAR-8.
For assay [13], the system named is SF-295.
For assay [14], the system named is SN12C.
Assay [15] has as its system TK-10.
Assay [16] has as its system U-251.
Assay [17] deals with CCRF-CEM.
The test system of assay [18] is HL-60.
The test system of assay [19] is SF-539.

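Dose response: 5 concentrations. Exposure: 48 h. Format: 96-well plates. Endpoint: linear interpolation; highest concentration if not reached. GI50 = concentration required for 50% inhibition of growth.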 Activity calls are given as the source filed them. Cut-off read from the data, not from the text of the source: active = GI50 up to about 1.1 µM and inactive = higher.

As for `NC(Cc1cc(I)c(Oc2ccc(O)c(I)c2)c(I)c1)C(=O)O` (stereo not given) [RATHYRONINE], the GI50 in assay [1] is > 100 µM (inactive); in [2], 35.7 µM (inactive); in assay [3], > 100 µM (inactive); in assay [4], > 100 µM (inactive); in [5] it was 82.4 µM (inactive); in assay [6], 41.6 µM (inactive). Further, the GI50 was > 100 µM (inactive) in assay [7]; > 100 µM (inactive) in assay [8]; > 100 µM (inactive) in assay [9]; 36.1 µM (inactive) in [10]; > 100 µM (inactive) in [11]; > 100 µM (inactive) in [12]. Further, the GI50 was > 100 µM (inactive) in [13], > 100 µM (inactive) in [14], 42 µM (inactive) in assay [15] and 43.4 µM (inactive) in [16].

Regarding `Cc1csc2[n+]1C(=O)/C(=C\c1ccc([N+](=O)[O-])cc1)S2`, the GI50 was 24.2 µM (inactive) in assay [1]; 22.7 µM (inactive) in [2]; 25.2 µM (inactive) in assay [3]; 43.1 µM (inactive) in assay [17]; 26.2 µM (inactive) in assay [18]; 28.5 µM (inactive) in assay [4]. For the same molecule, the GI50 in assay [5] is 19.4 µM (inactive); in assay [6] it was 32.7 µM (inactive); in [7] it was 27.8 µM (inactive); in assay [8] it was 4.1 µM (inactive); in assay [9], 18.7 µM (inactive); in assay [11], 42.3 µM (inactive). Also, the GI50 in assay [12] is 22.4 µM (inactive); in assay [13] it was 23.9 µM (inactive); in assay [19], 36.1 µM (inactive); in assay [14], 37.4 µM (inactive); in assay [15], 25.2 µM (inactive); in [16] it was 18.7 µM (inactive).

As for `COC(C)(C)C1=CCC(C)CC1` (stereo not given), the GI50 in [1] is > 100 µM (inactive); in assay [2] it was > 100 µM (inactive); in assay [3], > 100 µM (inactive); in [18], > 10 µM (inactive); in assay [4], > 100 µM (inactive); in assay [5], > 100 µM (inactive). The GI50 in assay [6] is 41.8 µM (inactive); in assay [7], > 100 µM (inactive); in [9], > 100 µM (inactive); in [10], > 100 µM (inactive); in assay [11], > 100 µM (inactive); in [12], > 100 µM (inactive). In addition, the GI50 in assay [13], in assay [19], in [14], in assay [15] and in [16] was > 100 µM (inactive) throughout.

Consider `COc1cc(NS(C)(=O)=O)ccc1N1Cc2c[nH]c3ccc4nc(C)cc1c4c23`, for which the GI50 in assay [1] was 20.7 µM (inactive); in assay [2], > 100 µM (inactive); in [3], 26.4 µM (inactive); in [17], 52.1 µM (inactive); in assay [18], 91.4 µM (inactive); in assay [4] it was 25.9 µM (inactive). In addition, the GI50 was 24.9 µM (inactive) in assay [5]; 52.6 µM (inactive) in [6]; 19.6 µM (inactive) in [7]; 38.8 µM (inactive) in assay [8]; 88.9 µM (inactive) in assay [9]; 26.2 µM (inactive) in assay [10]. The GI50 in assay [11] was 49.9 µM (inactive); in assay [12], 33 µM (inactive); in assay [13] it was 54.8 µM (inactive); in assay [15], > 100 µM (inactive); in assay [16] it was 32.3 µM (inactive).

Regarding `C=C1C(=O)C=C[C@]2(C)CC[C@H]3C(=C)C(=O)O[C@@H]3[C@@H]12`, the GI50 in [1] was 0.461 µM (active); in [2], 3.52 µM (inactive); in assay [3] it was 2.22 µM (inactive); in [17], 0.579 µM (active); in assay [18], 1.9 µM (inactive); in [4] it was 2.48 µM (inactive). Further, the GI50 is 2.87 µM (inactive) in assay [5]; 0.738 µM (active) in assay [6]; 1.88 µM (inactive) in [7]; 2.63 µM (inactive) in [9]; 0.753 µM (active) in assay [10]; 2.21 µM (inactive) in assay [11]. Also, the GI50 in [12] was 1.53 µM (inactive); in assay [13] it was 15.1 µM (inactive); in assay [19] it was 0.562 µM (active); in [14] it was 2.96 µM (inactive); in [15] it was 0.419 µM (active); in assay [16] it was 2.13 µM (inactive).

Regarding `C[N+](C)(C)C1=NNC2=Nc3ccccc3SC2=C1`, the GI50 in [1] was 20.1 µM (inactive); in assay [2], 26.4 µM (inactive); in [3], 32.3 µM (inactive); in assay [17], 11.7 µM (inactive); in [18], 54.1 µM (inactive); in [4] it was 22.8 µM (inactive). The GI50 is 12.1 µM (inactive) in [5]; 18.6 µM (inactive) in assay [6]; 17.8 µM (inactive) in assay [7]; 11.8 µM (inactive) in [8]; 28.9 µM (inactive) in [9]; 15.9 µM (inactive) in assay [10]. Further, the GI50 is 19.7 µM (inactive) in assay [11]; 18.4 µM (inactive) in [12]; 9.42 µM (inactive) in assay [13]; 21.9 µM (inactive) in assay [14]; 37.1 µM (inactive) in [15]; 18.6 µM (inactive) in [16].

For the molecule `C[N+]12C=CC=C1C(N1CCCC1)c1scc(-c3ccc(Br)cc3)c12` (stereo not given), the GI50 in [1] is 16.7 µM (inactive); in [2], 47.2 µM (inactive); in [3], > 62.5 µM (inactive); in [17], 18.2 µM (inactive); in assay [4], 14.8 µM (inactive); in assay [5] it was 12 µM (inactive). Also, the GI50 in assay [6] is 22.9 µM (inactive); in assay [7], 27 µM (inactive); in assay [8] it was 3.15 µM (inactive); in assay [9] it was 3.49 µM (inactive); in assay [10] it was 1.64 µM (inactive); in [11], 35.3 µM (inactive). The GI50 in [12] was 4.11 µM (inactive); in assay [13] it was 6.4 µM (inactive); in assay [19], 4 µM (inactive); in [14], 3.02 µM (inactive); in [15], 91.2 µM (inactive); in assay [16], 2.09 µM (inactive).

As to `Nc1nc(S)c2c(N)n[nH]c2c1C(=O)Nc1ccccc1`, the GI50 in assay [1], in assay [2], in [3], in [18], in assay [5] and in assay [6] was > 100 µM (inactive) in each case. Also, the GI50 in [7] was 50.2 µM (inactive); in [8] it was > 100 µM (inactive); in [9], > 100 µM (inactive); in assay [10] it was > 100 µM (inactive); in assay [11], > 100 µM (inactive); in [12], > 100 µM (inactive). Further, the GI50 in [19], in [14], in [15] and in [16] was > 100 µM (inactive) each time.

Consider `O=C1CN(c2ccc(Cl)cc2)C(=O)CN1NCNN1CC(=O)N(c2ccc(Cl)cc2)CC1=O`, for which the GI50 in [1], in assay [2], in assay [3], in [17], in [18] and in assay [4] was > 100 µM (inactive) throughout. Further, the GI50 in [5], in assay [6], in assay [7], in assay [9], in assay [10] and in [11] was > 100 µM (inactive) throughout. Moreover, the GI50 in [12], in [13], in assay [19], in [14], in [15] and in assay [16] was > 100 µM (inactive) each time.

For the molecule `CON(C)C(=O)C(C)NC(=O)OCc1ccccc1` (stereo not given), the GI50 in assay [1], in [2], in [17], in [18], in assay [4] and in assay [5] was > 100 µM (inactive) in each case. Besides, the GI50 in assay [6], in assay [7], in [8], in assay [9], in assay [12] and in [13] was > 100 µM (inactive) each time. Besides, the GI50 in assay [19], in assay [14], in assay [15] and in assay [16] was > 100 µM (inactive) in each case.

Turning to `Nc1ccc(Oc2ccc(C34CC5C6CC7(c8ccc(Oc9ccc(N)cc9)cc8)CC5C(C3)C(C7)C6C4)cc2)cc1`, the GI50 in assay [1], in assay [2], in assay [3], in assay [17], in assay [18] and in assay [4] was > 100 µM (inactive) throughout. Also, the GI50 in assay [5], in [6], in assay [7], in assay [8], in [9] and in assay [10] was > 100 µM (inactive) in each case. The GI50 in assay [11], in assay [12], in [13], in assay [14], in assay [15] and in assay [16] was > 100 µM (inactive) in each case.
